Measurements: PubChem BioAssay AID1918942 (Molecular Pharmacology Branch, DTP, NCI, 2023)

System: 743489-274-T-PDC complex spheroid viability
Assay: Anticancer human tumor 743489-274-T-PDC patient-derived renal cell carcinoma cell line growth inhibition
Details: for IC50: curve of first compound; for viability, T/C: stronger effect = lower value
Outline: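 Multicellular complex spheroids of tumor cells with human endothelial cells (HUVEC) and mesenchymal stem cells; the LSD1 inhibitor iadademstat was combined with standard-of-care or investigational agents. Top concentration at or near clinical Cmax, half-log dilutions; final DMSO ≤0.25%.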

[1] = second compound 0.1 µM, first compound 0.00316 µM
[2] = second compound 0.1 µM, first compound 0.01 µM
[3] = second compound 0.1 µM, first compound 0.0316 µM
[4] = second compound 0.1 µM, first compound 0.1 µM
[5] = second compound 0.316 µM, first compound 0.00316 µM
[6] = second compound 0.316 µM, first compound 0.01 µM
[7] = second compound 0.316 µM, first compound 0.0316 µM
[8] = second compound 0.316 µM, first compound 0.1 µM
[9] = second compound 1 µM, first compound 0.00316 µM
[10] = second compound 1 µM, first compound 0.01 µM
[11] = second compound 1 µM, first compound 0.0316 µM
[12] = second compound 1 µM, first compound 0.1 µM
[13] = second compound 3.16 µM, first compound 0.00316 µM
[14] = second compound 3.16 µM, first compound 0.01 µM
[15] = second compound 3.16 µM, first compound 0.0316 µM
[16] = second compound 3.16 µM, first compound 0.1 µM
[17] = second compound 10 µM, first compound 0.00316 µM
[18] = second compound 10 µM, first compound 0.01 µM
[19] = second compound 10 µM, first compound 0.0316 µM
[20] = second compound 10 µM, first compound 0.1 µM
[21] = second compound 0.1 µM, first compound 0.00949 µM
[22] = second compound 0.1 µM, first compound 0.03 µM
[23] = second compound 0.1 µM, first compound 0.0949 µM
[24] = second compound 0.1 µM, first compound 0.3 µM
[25] = second compound 0.1 µM, first compound 0.949 µM
[26] = second compound 0.1 µM, first compound 3 µM
[27] = second compound 0.316 µM, first compound 0.00949 µM
[28] = second compound 0.316 µM, first compound 0.03 µM
[29] = second compound 0.316 µM, first compound 0.0949 µM
[30] = second compound 0.316 µM, first compound 0.3 µM
[31] = second compound 0.316 µM, first compound 0.949 µM
[32] = second compound 0.316 µM, first compound 3 µM
[33] = second compound 1 µM, first compound 0.00949 µM
[34] = second compound 1 µM, first compound 0.03 µM
[35] = second compound 1 µM, first compound 0.0949 µM
[36] = second compound 1 µM, first compound 0.3 µM
[37] = second compound 1 µM, first compound 0.949 µM
[38] = second compound 1 µM, first compound 3 µM
[39] = second compound 3.16 µM, first compound 0.00949 µM
[40] = second compound 3.16 µM, first compound 0.03 µM
[41] = second compound 3.16 µM, first compound 0.0949 µM
[42] = second compound 3.16 µM, first compound 0.3 µM
[43] = second compound 3.16 µM, first compound 0.949 µM
[44] = second compound 3.16 µM, first compound 3 µM
[45] = second compound 10 µM, first compound 0.00949 µM
[46] = second compound 10 µM, first compound 0.03 µM
[47] = second compound 10 µM, first compound 0.0949 µM
[48] = second compound 10 µM, first compound 0.3 µM
[49] = second compound 10 µM, first compound 0.949 µM
[50] = second compound 10 µM, first compound 3 µM
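Note: spheroids exposed to compounds for 7 days before readout.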
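Throughout, for viability, T/C: 100% = DMSO vehicle control wells.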

COc1cc(Nc2ncc3c(n2)-c2ccc(Cl)cc2C(c2c(F)cccc2OC)=NC3)ccc1C(=O)O + NC1CC1c1ccc(-c2cccc(O)c2)cc1
IC50 (second compound 0.1 µM): > 1000 nM | IC50 (second compound 0.316 µM): > 1000 nM | IC50 (second compound 1 µM): > 1000 nM | IC50 (second compound 3.16 µM): > 1000 nM | IC50 (second compound 10 µM): > 1000 nM | viability, T/C [1]: 103% | viability, T/C [2]: 105% | viability, T/C [3]: 82.8% | viability, T/C [4]: 72.2% | viability, T/C (second compound 0.1 µM, first compound 0.316 µM): 82.4% | viability, T/C (second compound 0.1 µM, first compound 1 µM): 81.5% | viability, T/C [5]: 97.7% | viability, T/C [6]: 100% | viability, T/C [7]: 85.4% | viability, T/C [8]: 90% | viability, T/C (second compound 0.316 µM, first compound 0.316 µM): 81.2% | viability, T/C (second compound 0.316 µM, first compound 1 µM): 80.5% | viability, T/C [9]: 111% | viability, T/C [10]: 91.4% | viability, T/C [11]: 84.3% | viability, T/C [12]: 74.3% | viability, T/C (second compound 1 µM, first compound 0.316 µM): 74% | viability, T/C (second compound 1 µM, first compound 1 µM): 82.5% | viability, T/C [13]: 92.9% | viability, T/C [14]: 85.7% | viability, T/C [15]: 89.5% | viability, T/C [16]: 77.6% | viability, T/C (second compound 3.16 µM, first compound 0.316 µM): 72.8% | viability, T/C (second compound 3.16 µM, first compound 1 µM): 79% | viability, T/C [17]: 100% | viability, T/C [18]: 102% | viability, T/C [19]: 85.3% | viability, T/C [20]: 83.5% | viability, T/C (second compound 10 µM, first compound 0.316 µM): 82.9% | viability, T/C (second compound 10 µM, first compound 1 µM): 78.4%

Cn1ncnc1C1c2n[nH]c(=O)c3cc(F)cc(c23)NC1c1ccc(F)cc1 (stereo not given) + NC1CC1c1ccc(-c2cccc(O)c2)cc1
IC50 (second compound 0.1 µM): > 100 nM | IC50 (second compound 0.316 µM): > 100 nM | IC50 (second compound 1 µM): > 100 nM | IC50 (second compound 3.16 µM): > 100 nM | IC50 (second compound 10 µM): > 100 nM | viability, T/C (second compound 0.1 µM, first compound 0.000316 µM): 118% | viability, T/C (second compound 0.1 µM, first compound 0.001 µM): 100% | viability, T/C [1]: 102% | viability, T/C [2]: 82.8% | viability, T/C [3]: 92.4% | viability, T/C [4]: 90.4% | viability, T/C (second compound 0.316 µM, first compound 0.000316 µM): 106% | viability, T/C (second compound 0.316 µM, first compound 0.001 µM): 106% | viability, T/C [5]: 101% | viability, T/C [6]: 96.1% | viability, T/C [7]: 98.3% | viability, T/C [8]: 94.1% | viability, T/C (second compound 1 µM, first compound 0.000316 µM): 93.1% | viability, T/C (second compound 1 µM, first compound 0.001 µM): 103% | viability, T/C [9]: 100% | viability, T/C [10]: 93% | viability, T/C [11]: 84.6% | viability, T/C [12]: 97% | viability, T/C (second compound 3.16 µM, first compound 0.000316 µM): 97.9% | viability, T/C (second compound 3.16 µM, first compound 0.001 µM): 104% | viability, T/C [13]: 97.8% | viability, T/C [14]: 99.1% | viability, T/C [15]: 87.8% | viability, T/C [16]: 96.9% | viability, T/C (second compound 10 µM, first compound 0.000316 µM): 93.8% | viability, T/C (second compound 10 µM, first compound 0.001 µM): 111% | viability, T/C [17]: 97.1% | viability, T/C [18]: 105% | viability, T/C [19]: 100% | viability, T/C [20]: 90.8%

NS(=O)(=O)OCC1CC(n2ccc3c(NC4CCc5ccccc54)ncnc32)CC1O (stereo not given) + NC1CC1c1ccc(-c2cccc(O)c2)cc1
IC50 (second compound 0.1 µM): > 3000 nM | IC50 (second compound 0.316 µM): > 3000 nM | IC50 (second compound 1 µM): > 3000 nM | IC50 (second compound 3.16 µM): > 3000 nM | IC50 (second compound 10 µM): > 3000 nM | viability, T/C [21]: 98% | viability, T/C [22]: 107% | viability, T/C [23]: 127% | viability, T/C [24]: 154% | viability, T/C [25]: 154% | viability, T/C [26]: 134% | viability, T/C [27]: 98.3% | viability, T/C [28]: 97.4% | viability, T/C [29]: 125% | viability, T/C [30]: 150% | viability, T/C [31]: 134% | viability, T/C [32]: 149% | viability, T/C [33]: 108% | viability, T/C [34]: 111% | viability, T/C [35]: 125% | viability, T/C [36]: 152% | viability, T/C [37]: 168% | viability, T/C [38]: 137% | viability, T/C [39]: 96.5% | viability, T/C [40]: 104% | viability, T/C [41]: 122% | viability, T/C [42]: 145% | viability, T/C [43]: 140% | viability, T/C [44]: 130% | viability, T/C [45]: 90% | viability, T/C [46]: 98.6% | viability, T/C [47]: 129% | viability, T/C [48]: 153% | viability, T/C [49]: 150% | viability, T/C [50]: 142%

O=C(C=Cc1cccc(S(=O)(=O)Nc2ccccc2)c1)NO + NC1CC1c1ccc(-c2cccc(O)c2)cc1
IC50 (second compound 0.1 µM): 860 nM | IC50 (second compound 0.316 µM): 1010 nM | IC50 (second compound 1 µM): 1550 nM | IC50 (second compound 3.16 µM): 915 nM | IC50 (second compound 10 µM): 1380 nM | viability, T/C [21]: 107% | viability, T/C [22]: 98.5% | viability, T/C [23]: 93% | viability, T/C [24]: 67.8% | viability, T/C [25]: 49.7% | viability, T/C [26]: 28.5% | viability, T/C [27]: 102% | viability, T/C [28]: 93.2% | viability, T/C [29]: 88% | viability, T/C [30]: 64.9% | viability, T/C [31]: 53.1% | viability, T/C [32]: 34% | viability, T/C [33]: 98.7% | viability, T/C [34]: 99.3% | viability, T/C [35]: 84.2% | viability, T/C [36]: 84.1% | viability, T/C [37]: 58.8% | viability, T/C [38]: 35.9% | viability, T/C [39]: 98.5% | viability, T/C [40]: 88.1% | viability, T/C [41]: 90.8% | viability, T/C [42]: 69% | viability, T/C [43]: 50.2% | viability, T/C [44]: 24.1% | viability, T/C [45]: 98.9% | viability, T/C [46]: 97% | viability, T/C [47]: 87.8% | viability, T/C [48]: 81.4% | viability, T/C [49]: 56.6% | viability, T/C [50]: 33.9%
